Measured values as given in patent US20220315616A1, “MANGANESE CHELATE ISOMERS” (GE Healthcare AS, priority 2019, published 2022).

Key:
[1] = Mn-54 biodistribution study in rats; assay type: in vivo, Sprague-Dawley rats; conditions: rat, 7 d post injection; for % ID ± standard deviation, Brain: 0.62 mmol Mn/kg with ~30 μCi 54Mn labeled chelate, n = 4
Method: In vivo stability of the different isomer pools was assessed via a ^54Mn radioactive biodistribution as Mn released in vivo is known to be retained in brain, bone and liver. The amount of Mn released in vivo was assessed for Mn Chelate-5 synthesized without stereochemical control, a 1:1 mix of (R,R)-Mn Chelate-5 and (S,S)-Mn Chelate 5 isomers, and (R,S)-Mn Chelate-5 isomer pool B using ^54Mn labeled material added to non-radiolabeled material. […] Rats were dosed with 0.62 mmol Mn Chelate-5/kg containing ˜30 μCi ^54Mn Chelate-5. The animals were sacrificed at 7 d post injection, organs of interest were collected, and the ^54Mn remaining in the organs was measured using a gamma counter. FIG. 4 is a plot showing % ID (injected dose)/organ 7 d post injection of a 0.62 mmol Mn Chelate-5/kg dose containing ˜[…] ^54Mn Chelate-5. Bars containing hashed lines represent % ID/organ at or below the limit of detection for the study. The results of statistical comparison of the % ID for each organ are summarized as p-values using either a one-way ANOVA Games-Howell comparison or a 2-way t-test as appropriate are shown for each organ.
Method for preparation of Mn-54 labeled chelate for biodistribution studies. To a 3 mL glass vial fitted with a magnetic stir bar was added the manganese containing chelate (1 mg) and 1.0 M ammonium formate, pH=4 (0.5 mL). ^54MnCl2 in 1.0 M HCl (˜500 μCi) was then added and the resulting solution was heated at 40° C. for 16 h. The resulting solution was purified via preparative HPLC to remove unchelated Mn. The radioactive fraction was collected and evaporated to dryness in vacuo. The radioactive residue was taken up in water containing non-radioactive Mn chelate (0.310 M) such that ˜30 μCi of radioactivity was formulated in a dose of 0.620 mmol Mn/kg with an injection volume of 2 mL/kg.
General method for Mn-54 biodistribution studies. […] 7 days post injection, the animals were sacrificed by CO2 immersion and organs and tissues of interest were removed and assayed for radioactivity using a Wizard 2480 gamma counter (Table 2).

[2] = r1 and r2 relaxivities (Brüker mq60 relaxometer); assay type: physicochemical; conditions: in human serum at 60 MHz and 37° C.
From the text: General method for measurement of r1 and r2 relaxivities. […] […] Linear fits (R^2>0.99 in all cases) of 1/T1 or 1/T2 as a function of Mn concentration gave r1 or r2 values respectively.

[3] = Trans-metalation with Zn (HPLC, % Mn chelate remaining); assay type: physicochemical; conditions: 2 mM chelate, 200 mM ZnCl2 in 15 mM ammonium formate, pH=4, 40° C.
Method: (§1) Stability of Mn Chelate-5 stereoisomers in human serum was assessed in vitro by monitoring transfer of Mn from the chelate to blood proteins by a method employing size exclusion chromatography combined with online detection of manganese containing species by ICP-MS.
Method for assessing trans-metalation with Zn. Mn chelates were dissolved in aqueous solutions containing 200 mM ZnCl2 and 15 mM ammonium formate at either pH=4 to give a Mn chelate concentration of approx. 2 mM. The resulting solutions were incubated at 40° C. with mixing and aliquots were periodically analyzed by HPLC. The percent Mn containing chelate remaining in the solution was measured by integration at 265 nm.

[4] = Dissociation of manganese from the chelate in human serum (SEC with ICP-MS); assay type: in vitro ADME; conditions: for Percent dechelation in human serum: 37° C., protein bound manganese
Method: as §1
The following method was used for measurement of dissociation of manganese from the manganese chelate in human serum.
To human serum obtained from clotted blood (Sigma-Aldrich, 1900 μL) was added an aqueous solution of the manganese chelate (2 mM, 100 μL). The mixture was incubated at 37° C. At specific time points aliquots of 200 μL of test sample were mixed with saline (400 μL) and analysed by size exclusion chromatography (metal-free HPLC equipped with a column with separation range 5000-500000 Dalton) combined with online detection of manganese containing species by ICP-SF-MS. Percent dechelation was measured as area percent of the high molecular weight (protein) fraction. At regular intervals EDTA solution was run through the system to ensure low levels of background metal ions. Human serum was incubated with Mn(II)acetate and injected to identify the position of Mn-binding components in the high molecular weight region of the chromatogram.
Four different stereoisomers of Mn Chelate-5 (RR, SS, SR and RS) were analysed in this assay.

SMILES: CN1CCN2Cc3cccc(n3)CN(CC1)[C@@H](CCC(=O)NC[C@H](O)[C@@H](O)[C@H](O)[C@H](O)CO)C(=O)[O][Mn][O]C(=O)[C@H]2CCC(=O)NC[C@H](O)[C@@H](O)[C@H](O)[C@H](O)CO [(R,S)-Mn Chelate-5]
- Mn remaining in vivo in brain and bone vs 1:1 (S,S)/(R,R) mixture or Mn Chelate-5 without stereochemical control [1]: significantly less Mn remaining in vivo
- % ID ± standard deviation, Brain [1]: 0.002 ± 0.0004% ID
- r1 relaxivity [2]: 6.0 mM⁻¹ s⁻¹
- Rate of transmetallation with Zn (among Mn Chelate-5 stereoisomers) [3]: significantly slower rate of transmetallation
- Stability in human serum (percent dechelation curves, comparison of isomers) ([4]; 2 days total incubation at 37 °C): most stable
- Percent dechelation in human serum ([4]; incubation time 3 h): 0.04%
- Percent dechelation in human serum ([4]; incubation time 24 h): 0.11%
- Percent dechelation in human serum ([4]; incubation time 49 h): 0.16%

SMILES: CN1CCN2Cc3cccc(n3)CN(CC1)[C@H](CCC(=O)NC[C@H](O)[C@@H](O)[C@H](O)[C@H](O)CO)C(=O)[O][Mn][O]C(=O)[C@H]2CCC(=O)NC[C@H](O)[C@@H](O)[C@H](O)[C@H](O)CO [(R,R)-Mn Chelate-5]
- Percent dechelation in human serum ([4]; incubation time 3 h): 0.6%
- Percent dechelation in human serum ([4]; incubation time 24 h): 2.7%
- Percent dechelation in human serum ([4]; incubation time 49 h): 3.6%

SMILES: CN1CCN2Cc3cccc(n3)CN(CC1)[C@@H](CCC(=O)NC[C@H](O)[C@@H](O)[C@H](O)[C@H](O)CO)C(=O)[O][Mn][O]C(=O)[C@@H]2CCC(=O)NC[C@H](O)[C@@H](O)[C@H](O)[C@H](O)CO [(S,S)-Mn Chelate-5]
- Percent dechelation in human serum ([4]; incubation time 3 h): 0.3%
- Percent dechelation in human serum ([4]; incubation time 24 h): 1.6%
- Percent dechelation in human serum ([4]; incubation time 49 h): 2.4%

SMILES: CN1CCN2Cc3cccc(n3)CN(CC1)C(CCC(=O)NC[C@H](O)[C@@H](O)[C@H](O)[C@H](O)CO)C(=O)[O][Mn][O]C(=O)C2CCC(=O)NC[C@H](O)[C@@H](O)[C@H](O)[C@H](O)CO (stereo partly shown) [Mn Chelate-5]
- % ID ± standard deviation, Brain [1]: 0.005 ± 0.0004% ID
- r1 relaxivity [2]: 6.0 mM⁻¹ s⁻¹
